Experiments:
[1] = Comparative solubility in 0.9% sodium chloride solution (isotonic solution); assay type: physicochemical; conditions: 37° C.; for Solubility: 10 mg in 10 ml 0.9% sodium chloride solution, agitated 24 hours; for Relative solubility vs. form I: 0.9% sodium chloride solution, 24 hours
Experimental: As a matter of fact, a comparative experiment between form I of the compound (A) (monohydrate prepared as described in U.S. Pat. No. 7,329,689) and form II of compound (A), subject of the present invention, was carried out.
10 mg of compound (A) in crystalline form I were agitated in 10 ml of a 0.9% sodium chloride solution (isotonic solution) at 37° C. for 24 hours. The concentration of the product in liquid phase was measured at the end.
Table 1 indicates the obtained solubility data.

[2] = Stability test of crystalline form at 40° C., 75% humidity, analysed by PXRD; assay type: physicochemical; conditions: thin layer on Petri dish, samples after 2, 7 and 15 days
Experimental: FIG. 5 describes the profile of the stability diffractograms of ITF 2357 of form II at 40° C., 75% relative humidity at different times. In particular, the first diffractogram from the bottom is performed at time 0, the second diffractogram from the bottom is performed after 2 days, the third diffractogram from the bottom is performed after 7 days and the fourth diffractogram from the bottom is performed after 15 days.
In detail, a sample of form II of ITF 2357 was deposited in a thin layer having a thickness of about 0.5 cm on a Petri dish and placed in an environment with a constant humidity of 75%, at a constant temperature of 40° C. for two weeks. Samples were taken after 2, 7 and 15 days and analysed through Powder X Ray Diffraction (PXRD). The results of such experiments were summarised in FIG. 5, where the diffractograms obtained from the samples of the various collections were indicated overlapped.

| SMILES | Solubility [1] | Relative solubility vs. form I [1] | Relative solubility vs. form I ([1]; listed as form II) | Stability of the crystalline form (PXRD) [2] |
| --- | --- | --- | --- | --- |
| CN(C)Cc1ccc2cc(OC(=O)Nc3ccc(C(=O)NO)cc3)ccc2c1.Cl [Form I, hydrochloride of the (4-hydroxycarbamoyl-phenyl)-carbamic acid (6-dimethylamino methyl-2-naphtalenyl) ester, reference compound] | 154 µg/mL | 1.00 |  |  |
| CN(C)Cc1ccc2cc(OC(=O)Nc3ccc(C(=O)NO)cc3)ccc2c1.Cl [Form II, hydrochloride of the (4-hydroxycarbamoyl-phenyl)-carbamic acid (6-dimethylamino methyl-2-naphtalenyl) ester] | 226 µg/mL | 1.47 | 1.47 | no modifications of the crystalline form was observed |

— US8518988B2, “Polymorph of the hydrochloride of the (4-hydroxycarbamoyl-phenyl)-carbamic acid (6-dimethylamino methyl-2-naphthalenyl) ester” (Chemi SPA, priority 2010, dated 2013)
